We go through eleven compounds from ChEMBL document CHEMBL1201862, “PubChem BioAssay data set” (2004).

What all share (test): DTP human tumour cell line panel, 48 h
Assay [1] has as its system SR.
The test system of assay [2] is T47D.
The subject of assay [3] is K562.
In assay [4] the test system is NCI-H522.
Assay [5] deals with MDA-MB-435.
For assay [6], the system named is HOP-92.
Assay [7] has as its system DU-145.
Assay [8] concerns CAKI-1.
Assay [9] deals with COLO 205.
Assay [10] relates to PC-3.
Assay [11] has as its system OVCAR-3.
Assay [12] deals with UACC-257.
For assay [13], the system named is HCT-15.
Assay [14] relates to SW-620.
Assay [15] relates to OVCAR-5.
The subject of assay [16] is HOP-62.
For assay [17], the system named is SK-MEL-2.
Assay [18] concerns SF-295.
The test system of assay [19] is TK-10.
Assay [20] has as its system OVCAR-4.

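All cell lines were grown in 96-well plates and treated with compound for 48 hours. Here, GI50 denotes the concentration required for 50% inhibition of growth.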 The source made the active and inactive calls. Rule as the data show it: active = GI50 up to about 1.1 µM and inactive = higher. Bounds are passed on as bounds.

Consider `C=CCn1c(=O)c(Br)nn(CCOCP(=O)(OCC)OCC)c1=O`, for which the GI50 in assay [1], in [2], in [3], in assay [4], in [5] and in [6] was > 100 µM (inactive) in each case. The GI50 in assay [7], in assay [8], in [9], in assay [10], in assay [11] and in [12] was > 100 µM (inactive) throughout. Also, the GI50 (in general, the concentration giving 50% growth inhibition) in [13] was > 100 µM; in assay [14] it was > 100 µM (inactive); in assay [15] it was > 100 µM (inactive); in assay [16], > 100 µM (inactive); in assay [17], > 100 µM (inactive).

On to `C=CC1(c2ccc(Br)cc2)OCCCO1`, for which the GI50 in assay [1], in [18], in assay [2], in assay [3], in assay [4] and in assay [5] was > 100 µM (inactive) each time. Besides, the GI50 in assay [6], in [7], in assay [9], in [10], in assay [11] and in assay [12] was > 100 µM (inactive) in each case. In addition, the GI50 in [19] was > 100 µM (inactive); in [13], > 100 µM; in [14], > 100 µM (inactive); in [15], > 100 µM (inactive); in assay [16], > 100 µM (inactive); in [20], > 100 µM (inactive). For the same compound, the GI50 in assay [17] was > 100 µM (inactive).

Consider `CC(=O)/C=C1\Nc2ccccc2N\C1=C/C(C)=O`, for which the GI50 in assay [1] is 25.1 µM (inactive); in [18], 26.5 µM (inactive); in assay [2] it was 19.5 µM (inactive); in assay [3] it was 26.6 µM (inactive); in assay [4], 11.1 µM (inactive); in [5] it was 26.4 µM (inactive). Besides, the GI50 in assay [6] was 24.4 µM (inactive); in assay [7], 30 µM (inactive); in assay [8], 60.8 µM (inactive); in [9], 23.2 µM (inactive); in assay [10] it was 37.9 µM (inactive); in assay [11], 17.5 µM (inactive). Also, the GI50 was 20.3 µM (inactive) in assay [12]; 19.4 µM (inactive) in assay [19]; 24.3 µM in assay [13]; 35.7 µM (inactive) in assay [14]; 28.8 µM (inactive) in [15]; 27.3 µM (inactive) in assay [16]. In addition, the GI50 in assay [20] is 19 µM (inactive); in assay [17], 20.6 µM (inactive).

In the case of `Nc1nc(-c2ccccc2)nc2oc(-c3cccs3)nc12`, the GI50 in assay [1], in assay [18], in assay [2], in assay [3], in [4] and in assay [5] was > 100 µM (inactive) throughout. Besides, the GI50 in assay [6] is > 100 µM (inactive); in assay [7] it was > 100 µM (inactive); in assay [8] it was > 10 µM (inactive); in assay [9] it was > 100 µM (inactive); in assay [10] it was > 100 µM (inactive); in [11], > 100 µM (inactive). For the same compound, the GI50 in [12] was > 100 µM (inactive); in assay [19] it was > 100 µM (inactive); in assay [13] it was > 100 µM; in [14], > 100 µM (inactive); in assay [15] it was > 100 µM (inactive); in assay [16], > 100 µM (inactive). The GI50 in assay [17] was > 100 µM (inactive).

On to `COc1ccc(-n2c(N)c(C#N)c(C#N)c2-c2ccccc2)cc1`, for which the GI50 in [1] is > 100 µM (inactive); in [18] it was 31.8 µM (inactive); in [2], 4.57 µM (inactive); in assay [4], 59.4 µM (inactive); in assay [5], > 100 µM (inactive); in assay [6], 10.1 µM (inactive). In addition, the GI50 in assay [7] is > 100 µM (inactive); in assay [8], > 100 µM (inactive); in assay [9], > 100 µM (inactive); in [10], 19.8 µM (inactive); in assay [11], > 100 µM (inactive); in assay [12] it was > 100 µM (inactive). Moreover, the GI50 in assay [19] was > 100 µM (inactive); in assay [13], > 100 µM; in [14], > 100 µM (inactive); in assay [15] it was > 100 µM (inactive); in [16] it was 87.7 µM (inactive); in assay [20] it was 15.1 µM (inactive). For the same compound, the GI50 in assay [17] was 22.8 µM (inactive).

As for `S=c1sscc1N1CCSc2ssc(=S)c21`, the GI50 in assay [1] was > 100 µM (inactive); in assay [2], 20.8 µM (inactive); in [3], > 100 µM (inactive); in assay [4] it was 19.8 µM (inactive); in assay [5], > 100 µM (inactive); in assay [6] it was 8.36 µM (inactive). The GI50 was 21.8 µM (inactive) in [7]; > 100 µM (inactive) in assay [8]; > 100 µM (inactive) in assay [9]; 48.1 µM (inactive) in assay [10]; > 100 µM (inactive) in assay [12]; 24.8 µM (inactive) in assay [19]. Also, the GI50 was 47.5 µM in assay [13]; > 100 µM (inactive) in assay [14]; > 100 µM (inactive) in [15]; 7.45 µM (inactive) in assay [20]; 78.2 µM (inactive) in assay [17].

In the case of `CCCCCCCCCCCCOc1ccc(/C=C/C2=[N+](CCCl)CCO2)cc1`, the GI50 in assay [1] was 19.6 µM (inactive); in assay [18], 45.8 µM (inactive); in assay [2], 76.4 µM (inactive); in assay [3], 21.3 µM (inactive); in assay [4], 17 µM (inactive); in [5], 94.2 µM (inactive). For the same compound, the GI50 in assay [6] was 25.1 µM (inactive); in assay [7], > 100 µM (inactive); in [8], > 100 µM (inactive); in assay [9], > 100 µM (inactive); in [10], 58.1 µM (inactive); in assay [11], 19.4 µM (inactive). Besides, the GI50 is 63.2 µM (inactive) in [12]; 47.6 µM (inactive) in [19]; 31.7 µM in [13]; > 100 µM (inactive) in assay [14]; > 100 µM (inactive) in assay [15]; > 100 µM (inactive) in assay [16]. The GI50 in [20] is 41.7 µM (inactive); in [17], > 100 µM (inactive).

Consider `Nc1c(-c2nc3ccccc3o2)sc(=S)n1-c1ccc(Cl)cc1`, for which the GI50 in [1] was 51.5 µM (inactive); in assay [18], 10.6 µM (inactive); in [2], 2.58 µM (inactive); in assay [3], 0.474 µM (active); in assay [4] it was 14 µM (inactive); in [5] it was 17.3 µM (inactive). The GI50 was 21.7 µM (inactive) in assay [6]; 12 µM (inactive) in assay [7]; 12.6 µM (inactive) in [8]; 17.1 µM (inactive) in assay [9]; 21.7 µM (inactive) in assay [10]; 15.9 µM (inactive) in assay [11]. Moreover, the GI50 in assay [12] was 18 µM (inactive); in assay [19], 27.9 µM (inactive); in [13] it was 26.1 µM; in assay [15] it was 46.1 µM (inactive); in [16], 5.11 µM (inactive); in assay [20], 11 µM (inactive). Also, in [17], the GI50 was 11.2 µM (inactive).

Turning to `COC(CNC(=O)C(C)NC(=O)C(C)NC(=O)c1ccccc1)OC` (stereo not given), the GI50 in [1], in assay [18], in assay [2], in assay [3], in [4] and in [5] was > 100 µM (inactive) in each case. For the same compound, the GI50 in assay [6], in assay [7], in [8], in [9], in assay [10] and in [12] was > 100 µM (inactive) each time. In addition, the GI50 in [19] was > 100 µM (inactive); in [13], > 100 µM; in assay [14] it was > 100 µM (inactive); in [15], > 100 µM (inactive); in [20] it was > 100 µM (inactive); in assay [17], > 100 µM (inactive).

`O=C1C(=C(C(F)(F)Cl)C(F)(F)Cl)C2CCC1C2` (stereo not given): the 50% growth inhibitory concentration (GI50) in assay [1] was 0.0655 µM (active); in assay [18], 4.67 µM (inactive); in [2] it was 1.38 µM (inactive); in assay [3], 0.63 µM (active); in assay [4], 0.225 µM (active); in assay [5], 1.88 µM (inactive). In addition, the GI50 in assay [6] is 2.58 µM (inactive); in assay [7], 7.53 µM (inactive); in assay [9], 1.67 µM (inactive); in assay [10], 2.07 µM (inactive); in assay [11] it was 2.45 µM (inactive); in assay [12] it was 1.9 µM (inactive). In addition, the GI50 in [19] was 1.77 µM (inactive); in assay [13] it was 1.98 µM; in assay [14] it was 1.82 µM (inactive); in assay [15], 2.96 µM (inactive); in assay [16], > 9.16 µM (inactive); in assay [20], 2.84 µM (inactive). Besides, the GI50 in assay [17] was 1.78 µM (inactive).

Consider `CC1(C)CCCC(C)(C2CCC3(C)C2C(O)CC2C4(C)CCC(O)C(C)(C)C4CCC23C)O1` (stereo not given), for which the GI50 is > 100 µM (inactive) in [1]; 52.1 µM (inactive) in assay [18]; > 100 µM (inactive) in assay [2]; 91.8 µM (inactive) in assay [3]; 75.5 µM (inactive) in assay [4]; > 100 µM (inactive) in assay [5]. For the same compound, the GI50 was 76.6 µM (inactive) in assay [6]; > 100 µM (inactive) in assay [7]; 42.7 µM (inactive) in assay [8]; 80.2 µM (inactive) in assay [9]; > 100 µM (inactive) in [10]; > 100 µM (inactive) in assay [12]. Moreover, the GI50 was 86.5 µM (inactive) in assay [19]; > 100 µM in assay [13]; > 100 µM (inactive) in assay [14]; > 100 µM (inactive) in assay [15]; 66.2 µM (inactive) in assay [20]; > 100 µM (inactive) in assay [17].
